The nature of data set [1]: Therapeutic index, ratio of HC10 for mouse RBC to IC50 for cytotoxicity against human HeLa cells. The format is toxicity, cell-based. The settings on record: mouse RBC and HeLa cells, read-out: TI.
In data set [2] the test system is HeLa. In words: Cytotoxicity against human HeLa cells assessed as inhibition of cell growth incubated for 1 hr by MTT assay. The format is functional, cell-based. For orientation: Tetrazolium dyes change colour on reduction, which living cells bring about.
The nature of data set [3]: Cytotoxicity against RG cells (unknown origin) assessed as inhibition of cell growth incubated for 1 hr by MTT assay. The format is functional, cell-based.
The nature of data set [4]: Therapeutic index, ratio of HC10 for mouse RBC to IC50 for cytotoxicity against human MCF7 cells. The format is toxicity, cell-based. The settings on record: mouse RBC and MCF7 cells, read-out: TI.
Data set [5] is described as follows: Cytotoxicity against HK-2 cells assessed as inhibition of cell growth incubated for 1 hr by MTT assay. The format is toxicity, cell-based. Conditions: human.
The test system of data set [6] is A549. Description: Cytotoxicity against human A549 cells assessed as inhibition of cell growth incubated for 1 hr by MTT assay. The format is functional, cell-based. The settings on record: A549, 1 h.
Data set [7] is described as follows: Therapeutic index, ratio of HC10 for mouse RBC to IC50 for cytotoxicity against human A549 cells. The format is toxicity, cell-based. Conditions: mouse RBC and A549 cells, read-out: TI.
Data set [8] can be described thus: Therapeutic index, ratio of HC10 for mouse RBC to IC50 for cytotoxicity against RG cells (unknown origin). The format is toxicity, cell-based. The settings on record: mouse RBC and RG cells, read-out: TI.
The subject of data set [9] is MCF7. Description: Cytotoxicity against human MCF7 cells assessed as inhibition of cell growth incubated for 1 hr by MTT assay. The format is functional, cell-based. The settings on record: MCF7, 1 h.

We go through eleven molecules from ChEMBL document CHEMBL5584231, “Rational design of a new short anticancer peptide with good potential for cancer treatment” (Eur J Med Chem, 2024).

Residues, ends and D or L forms follow the SMILES beside them.

In general, IC50 refers to the point on the concentration scale where inhibition reaches its midpoint. As to `CC(C)C[C@H](NC(=O)[C@H](CC(C)C)NC(=O)[C@H](CCCCN)NC(=O)[C@H](CCCCN)NC(=O)[C@H](CC(C)C)NC(=O)[C@H](CC(C)C)NC(=O)[C@H](CCCCN)NC(=O)[C@H](CCCCN)NC(=O)[C@H](CC(C)C)NC(=O)[C@H](CC(C)C)NC(=O)[C@H](CCCCN)NC(=O)[C@H](CCCCN)NC(=O)[C@H](CC(C)C)NC(=O)[C@@H](N)CCC(=O)O)C(N)=O` (H-ELKKLLKKLLKKLL-NH2), the selectivity ratio is 1.58 in [1], 0.647 in data set [4], 1.75 in data set [7] and 1.15 in [8]. For the same molecule, the IC50 stood at 16.3 µM in [2], 22.5 µM in data set [3], 14.7 µM in [6] and 39.9 µM in data set [9]. Moreover, in [5], the IC50 at 1 h is 50.8 µM.
For `CC(C)C[C@H](NC(=O)[C@H](CC(C)C)NC(=O)[C@H](CCCCN)NC(=O)[C@H](CCCCN)NC(=O)[C@H](CC(C)C)NC(=O)[C@H](CC(C)C)NC(=O)[C@H](CCCCN)NC(=O)[C@H](CCCCN)NC(=O)[C@H](CC(C)C)NC(=O)[C@H](CC(C)C)NC(=O)[C@H](CCCCN)NC(=O)[C@@H](N)CCCCN)C(=O)N[C@@H](CCCCN)C(N)=O` (H-KKLLKKLLKKLLK-NH2), the selectivity ratio is 24.1 in [1], 4.61 in data set [4], 9.03 in [7] and 5.36 in data set [8]. Further, the IC50 in data set [2] was 20.8 µM; in [3] it was 93.3 µM; in data set [6] it was 55.4 µM; in [9], 108 µM. Besides, the IC50 at 1 h in data set [5] amounted to 63.9 µM.
As for `CC(C)C[C@H](NC(=O)[C@H](CC(C)C)NC(=O)[C@H](CCCCN)NC(=O)[C@H](CCCCN)NC(=O)[C@H](CC(C)C)NC(=O)[C@H](CC(C)C)NC(=O)[C@H](CCCCN)NC(=O)[C@H](CCCCN)NC(=O)[C@H](CC(C)C)NC(=O)[C@H](CC(C)C)NC(=O)[C@H](CCCCN)NC(=O)[C@H](CCCCN)NC(=O)[C@H](CC(C)C)NC(=O)[C@H](CC(C)C)NC(=O)[C@H](CCCCN)NC(=O)[C@@H](N)CCCCN)C(=O)N[C@@H](CCCCN)C(N)=O` (H-KKLLKKLLKKLLKKLLK-NH2), the selectivity ratio in data set [1] is 2.62; in data set [4] it was 1.34; in data set [7], 1.67; in data set [8], 1.11. For the same molecule, the concentration for half-maximal inhibition (IC50) was 4.63 µM in data set [2], 10.9 µM in data set [3], 7.23 µM in [6] and 9.06 µM in [9]. Moreover, in [5], the IC50 at 1 h turned out to be 8.47 µM.
`CC(C)C[C@H](NC(=O)[C@H](CCCCN)NC(=O)[C@H](CC(C)C)NC(=O)[C@H](CC(C)C)NC(=O)[C@H](CCCCN)NC(=O)[C@H](CCCCN)NC(=O)[C@H](CC(C)C)NC(=O)[C@H](CC(C)C)NC(=O)[C@H](CCCCN)NC(=O)[C@H](CCCCN)NC(=O)[C@H](CC(C)C)NC(=O)[C@H](CC(C)C)NC(=O)[C@H](CCCCN)NC(=O)[C@H](CCCCN)NC(=O)[C@H](CC(C)C)NC(=O)[C@H](CC(C)C)NC(=O)[C@H](CCCCN)NC(=O)[C@@H](N)CCCCN)C(N)=O` (H-KKLLKKLLKKLLKKLLKL-NH2): the selectivity ratio in [1] was determined as 1.8; in data set [4], 1.05; in data set [7], 1.11; in data set [8], 0.686. For the same molecule, the IC50 in data set [2] is 3.45 µM; in data set [3] it was 9.04 µM; in [6], 5.61 µM; in [9], 5.88 µM. In addition, the IC50 at 1 h in data set [5] was found to be 15.1 µM.
With `CC(C)C[C@H](NC(=O)[C@H](CCCCN)NC(=O)[C@H](CC(C)C)NC(=O)[C@H](CC(C)C)NC(=O)[C@H](CCCCN)NC(=O)[C@H](CCCCN)NC(=O)[C@H](CC(C)C)NC(=O)[C@H](CC(C)C)NC(=O)[C@H](CCCCN)NC(=O)[C@H](CCCCN)NC(=O)[C@H](CC(C)C)NC(=O)[C@H](CC(C)C)NC(=O)[C@H](CCCCN)NC(=O)[C@@H](N)CCCCN)C(N)=O` (H-KKLLKKLLKKLLKL-NH2), the selectivity ratio was 10.3 in [1], 6.5 in data set [4], 9.31 in [7] and 6.72 in [8]. Also, the half-maximal inhibitory concentration (IC50) in [2] came out at 7.85 µM; in data set [3], 12.1 µM; in data set [6], 8.71 µM; in data set [9], 12.5 µM. The IC50 at 1 h in data set [5] was found to be 8.91 µM.
Regarding `CC(C)C[C@H](NC(=O)[C@H](CC(C)C)NC(=O)[C@H](CCCCN)NC(=O)[C@H](CCCCN)NC(=O)[C@H](CC(C)C)NC(=O)[C@H](CC(C)C)NC(=O)[C@H](CCCCN)NC(=O)[C@H](CCCCN)NC(=O)[C@H](CC(C)C)NC(=O)[C@H](CC(C)C)NC(=O)[C@@H](N)CCCCN)C(=O)N[C@@H](CCCCN)C(N)=O` (H-KLLKKLLKKLLK-NH2), the selectivity ratio in data set [1] was 18.9; in data set [4] it was 4.66; in data set [7] it was 3.19; in data set [8] it was 8.86. Also, the IC50 in [2] stood at 22.2 µM; in data set [3] it was 47.2 µM; in data set [6], 131 µM; in [9] it was 89.7 µM. The concentration for half-maximal inhibition (IC50) at 1 h in data set [5] was 82.6 µM.
With `CC(C)C[C@H](NC(=O)[C@H](CC(C)C)NC(=O)[C@H](CCCCN)NC(=O)[C@H](CCCCN)NC(=O)[C@H](CC(C)C)NC(=O)[C@H](CC(C)C)NC(=O)[C@H](CCCCN)NC(=O)[C@H](CCCCN)NC(=O)[C@H](CC(C)C)NC(=O)[C@H](CC(C)C)NC(=O)[C@H](CCCCN)NC(=O)[C@H](CCCCN)NC(=O)[C@H](CC(C)C)NC(=O)[C@H](CC(C)C)NC(=O)[C@@H](N)CCCCN)C(=O)N[C@@H](CCCCN)C(N)=O` (H-KLLKKLLKKLLKKLLK-NH2), the selectivity ratio in data set [1] came to 2.31; in data set [4], 1.22; in data set [7], 2.31; in [8] it was 1.34. For the same molecule, the IC50 in data set [2] stood at 3.94 µM; in [3], 6.79 µM; in [6] it was 3.93 µM; in data set [9], 7.46 µM. The IC50 at 1 h in data set [5] came to 7.36 µM.
For the molecule `CC(C)C[C@H](NC(=O)[C@H](CCCCN)NC(=O)[C@H](CC(C)C)NC(=O)[C@H](CC(C)C)NC(=O)[C@H](CCCCN)NC(=O)[C@H](CCCCN)NC(=O)[C@H](CC(C)C)NC(=O)[C@H](CC(C)C)NC(=O)[C@H](CCCCN)NC(=O)[C@H](CCCCN)NC(=O)[C@H](CC(C)C)NC(=O)[C@H](CC(C)C)NC(=O)[C@H](CCCCN)NC(=O)[C@H](CCCCN)NC(=O)[C@H](CC(C)C)NC(=O)[C@H](CC(C)C)NC(=O)[C@@H](N)CCCCN)C(N)=O` (H-KLLKKLLKKLLKKLLKL-NH2), the selectivity ratio stood at 1.2 in data set [1], 0.517 in [4], 0.787 in data set [7] and 0.406 in data set [8]. For the same molecule, the concentration for half-maximal inhibition (IC50) was found to be 2.68 µM in [2], 7.88 µM in data set [3], 4.06 µM in [6] and 6.19 µM in data set [9]. Further, the IC50 at 1 h in data set [5] stood at 5.35 µM.
As for `CC(C)C[C@H](NC(=O)[C@H](CCCCN)NC(=O)[C@H](CC(C)C)NC(=O)[C@H](CC(C)C)NC(=O)[C@H](CCCCN)NC(=O)[C@H](CCCCN)NC(=O)[C@H](CC(C)C)NC(=O)[C@H](CC(C)C)NC(=O)[C@H](CCCCN)NC(=O)[C@H](CCCCN)NC(=O)[C@H](CC(C)C)NC(=O)[C@H](CC(C)C)NC(=O)[C@@H](N)CCCCN)C(N)=O` (H-KLLKKLLKKLLKL-NH2), the selectivity ratio was 6.79 in data set [1], 5.27 in data set [4], 6.09 in [7] and 4.98 in data set [8]. The IC50 worked out at 8.14 µM in data set [2], 11.1 µM in data set [3], 9.08 µM in [6] and 10.5 µM in data set [9]. The IC50 at 1 h in [5] is 9.65 µM.
As to `CC(C)C[C@H](NC(=O)[C@H](CC(C)C)NC(=O)[C@H](CCCCN)NC(=O)[C@H](CCCCN)NC(=O)[C@H](CC(C)C)NC(=O)[C@H](CC(C)C)NC(=O)[C@H](CCCCN)NC(=O)[C@H](CCCCN)NC(=O)[C@H](CC(C)C)NC(=O)[C@H](CC(C)C)NC(=O)[C@H](CCCCN)NC(=O)[C@H](CC(C)C)NC(=O)[C@H](CC(C)C)NC(=O)[C@@H](N)CCCCN)C(N)=O` (H-KLLKLLKKLLKKLL-NH2), the selectivity ratio in data set [1] stood at 0.629; in data set [4], 0.129; in data set [7] it was 0.486; in [8] it was 0.219. The IC50 in data set [2] was 11.9 µM; in data set [3] it was 34.3 µM; in data set [6] it was 15.4 µM; in data set [9], 58.4 µM. In addition, the IC50 at 1 h in data set [5] came out at 28.1 µM.
On to `CC(C)C[C@H](NC(=O)[C@H](CC(C)C)NC(=O)[C@H](CCCCN)NC(=O)[C@H](CCCCN)NC(=O)[C@H](CC(C)C)NC(=O)[C@H](CC(C)C)NC(=O)[C@H](CCCCN)NC(=O)[C@H](CCCCN)NC(=O)[C@H](CC(C)C)NC(=O)[C@H](CC(C)C)NC(=O)[C@H](CCCCN)NC(=O)[C@H](CCCCN)NC(=O)[C@H](CCC(=O)O)NC(=O)[C@@H](N)CC(C)C)C(N)=O` (H-LEKKLLKKLLKKLL-NH2), for which the selectivity ratio in data set [1] worked out at 4.62; in data set [4] it was 2.33; in data set [7], 2.42; in data set [8] it was 2.58. For the same molecule, the IC50 turned out to be 25.8 µM in [2], 46.4 µM in data set [3], 49.4 µM in data set [6] and 51.2 µM in data set [9]. Further, in data set [5], the IC50 at 1 h is 59.2 µM.
